In this test the target is T1, voltage-dependent T-type calcium channel subunit alpha-1G (Cav3.2) (Homo sapiens, UniProt O95180).
T1 construct: expressed in transfected cells; host or cells: HEK293
T1 sequence (O95180 whole entry): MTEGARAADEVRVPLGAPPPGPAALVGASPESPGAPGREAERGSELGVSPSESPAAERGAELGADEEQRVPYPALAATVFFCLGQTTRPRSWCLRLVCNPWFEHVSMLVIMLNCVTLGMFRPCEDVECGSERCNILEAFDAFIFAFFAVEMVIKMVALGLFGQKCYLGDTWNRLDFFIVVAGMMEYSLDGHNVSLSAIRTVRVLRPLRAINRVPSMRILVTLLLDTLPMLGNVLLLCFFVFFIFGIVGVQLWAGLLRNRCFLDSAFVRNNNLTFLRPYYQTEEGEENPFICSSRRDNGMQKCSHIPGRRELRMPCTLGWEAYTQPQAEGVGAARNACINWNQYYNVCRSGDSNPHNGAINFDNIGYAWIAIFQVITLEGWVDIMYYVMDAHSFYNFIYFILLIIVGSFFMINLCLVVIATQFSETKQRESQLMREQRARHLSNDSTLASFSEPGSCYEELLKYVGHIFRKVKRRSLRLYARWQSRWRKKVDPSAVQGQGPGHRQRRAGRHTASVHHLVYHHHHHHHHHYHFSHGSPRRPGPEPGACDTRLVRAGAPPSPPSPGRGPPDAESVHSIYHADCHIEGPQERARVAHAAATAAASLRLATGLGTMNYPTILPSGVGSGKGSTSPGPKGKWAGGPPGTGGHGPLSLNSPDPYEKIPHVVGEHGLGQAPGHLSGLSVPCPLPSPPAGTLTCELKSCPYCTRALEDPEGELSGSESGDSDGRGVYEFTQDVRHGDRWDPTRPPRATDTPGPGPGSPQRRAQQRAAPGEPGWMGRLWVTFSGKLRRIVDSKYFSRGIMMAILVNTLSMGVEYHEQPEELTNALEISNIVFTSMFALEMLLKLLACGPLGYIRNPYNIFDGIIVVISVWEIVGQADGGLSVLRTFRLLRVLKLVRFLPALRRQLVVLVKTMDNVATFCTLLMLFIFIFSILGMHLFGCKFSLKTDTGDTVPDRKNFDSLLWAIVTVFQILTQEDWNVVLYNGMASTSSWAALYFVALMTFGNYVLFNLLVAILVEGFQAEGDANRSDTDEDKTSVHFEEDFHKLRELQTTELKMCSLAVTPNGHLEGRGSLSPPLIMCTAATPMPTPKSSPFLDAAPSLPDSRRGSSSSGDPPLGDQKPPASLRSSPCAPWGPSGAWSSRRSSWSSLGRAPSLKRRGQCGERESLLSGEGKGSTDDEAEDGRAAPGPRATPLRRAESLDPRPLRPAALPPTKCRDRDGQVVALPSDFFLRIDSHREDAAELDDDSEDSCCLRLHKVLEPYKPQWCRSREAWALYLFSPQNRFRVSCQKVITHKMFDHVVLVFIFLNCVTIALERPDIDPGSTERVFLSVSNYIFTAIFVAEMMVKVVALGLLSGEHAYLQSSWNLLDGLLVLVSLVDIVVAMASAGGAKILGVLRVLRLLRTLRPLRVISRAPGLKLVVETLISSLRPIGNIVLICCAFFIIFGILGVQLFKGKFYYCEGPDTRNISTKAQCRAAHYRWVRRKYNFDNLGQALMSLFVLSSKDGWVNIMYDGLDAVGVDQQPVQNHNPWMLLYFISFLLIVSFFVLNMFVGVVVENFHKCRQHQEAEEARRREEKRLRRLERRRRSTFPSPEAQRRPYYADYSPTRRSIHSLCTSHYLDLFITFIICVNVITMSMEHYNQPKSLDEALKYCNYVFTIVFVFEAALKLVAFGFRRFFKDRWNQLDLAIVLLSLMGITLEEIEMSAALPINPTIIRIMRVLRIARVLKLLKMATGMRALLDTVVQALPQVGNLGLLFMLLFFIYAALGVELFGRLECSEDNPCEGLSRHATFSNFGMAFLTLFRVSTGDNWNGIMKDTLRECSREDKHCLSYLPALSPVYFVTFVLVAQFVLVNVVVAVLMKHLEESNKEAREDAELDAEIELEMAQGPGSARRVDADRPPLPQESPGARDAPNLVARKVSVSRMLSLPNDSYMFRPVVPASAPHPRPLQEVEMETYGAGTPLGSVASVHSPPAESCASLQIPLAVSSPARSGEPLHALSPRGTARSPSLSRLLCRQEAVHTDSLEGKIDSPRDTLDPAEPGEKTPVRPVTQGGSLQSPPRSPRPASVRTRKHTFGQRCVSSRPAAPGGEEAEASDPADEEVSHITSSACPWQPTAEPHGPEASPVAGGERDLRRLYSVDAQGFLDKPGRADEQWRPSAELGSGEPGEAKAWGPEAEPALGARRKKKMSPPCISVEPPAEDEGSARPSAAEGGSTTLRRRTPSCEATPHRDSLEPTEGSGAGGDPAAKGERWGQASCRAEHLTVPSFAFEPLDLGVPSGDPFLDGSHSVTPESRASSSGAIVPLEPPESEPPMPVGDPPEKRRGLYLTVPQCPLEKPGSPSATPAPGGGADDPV
Description: FLIPR calcium flux assay, HEK293 cells recombinantly expressing Cav3.2. It is filed as cell-based. The note with it: Cav3.2-channel, Fluo-4-AM, 3 min incubation, stimulation with 10 mM CaCl2. A digest of the protocol: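 Calcium influx was triggered by adding CaCl2 to 10 mM final, 3 min after compounds in tetraethylammonium-based buffer, pH 7.2, reached Fluo-4-AM-loaded recombinant HEK293 cells. The integrated kinetic fluorescence signal per concentration gave concentration-response curves by non-linear sigmoidal regression.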
In general terms: A change in cytosolic calcium serves as a functional read-out for many receptors and channels.
For `O=C(Cc1ccc(C2CC2)nc1)Nc1ccn(Cc2ccc(F)c(Cl)c2)n1` [Example 194, N-[1-(3-Chloro-4-fluoro-benzyl)-1H-pyrazol-3-yl]-2-(6-cyclopropyl-pyridin-3-yl)-acetamide], the IC50 – broadly, the midpoint of a concentration-inhibition curve – is 0.061 µM. For `CC(C)c1ccc(CC(=O)Nc2ccn(Cc3ccc(OC4CC4)cc3)n2)cc1` [Example 195, N-[1-(4-Cyclopropoxy-benzyl)-1H-pyrazol-3-yl]-2-(4-isopropyl-phenyl)-acetamide] the value was 0.047 µM; for `N#Cc1ccc(Cn2ccc(NC(=O)Cc3ccc(OC4CCC4)cc3)n2)nc1` [Example 196, N-[1-(5-Cyano-pyridin-2-ylmethyl)-1H-pyrazol-3-yl]-2-(4-cyclobutoxy-phenyl)-acetamide], 0.176 µM; for `N#Cc1ccc(Cn2ccc(NC(=O)Cc3ccc(OC4CCC4)cc3)n2)cc1` [Example 197, N-[1-(4-Cyano-benzyl)-1H-pyrazol-3-yl]-2-(4-cyclobutoxy-phenyl)-acetamide], 0.054 µM. For the compound `O=C(Cc1ccc(OC2CCC2)cc1)Nc1ccn(Cc2ccc(F)cc2)n1` [Example 198, 2-(4-Cyclobutoxy-phenyl)-N-[1-(4-fluoro-benzyl)-1H-pyrazol-3-yl]-acetamide], the IC50 came out at 0.016 µM.

`COc1ccc(Cn2ccc(NC(=O)Cc3ccc(OC4CCC4)cc3)n2)cc1` [Example 199, 2-(4-Cyclobutoxy-phenyl)-N-[1-(4-methoxy-benzyl)-1H-pyrazol-3-yl]-acetamide]: the IC50 stood at 0.074 µM. To `O=C(Cc1ccc(OC2CCC2)cc1)Nc1ccn(Cc2ccc(F)cn2)n1` [Example 200, 2-(4-Cyclobutoxy-phenyl)-N-[1-(5-fluoro-pyridin-2-ylmethyl)-1H-pyrazol-3-yl]-acetamide] belongs 0.067 µM; to `O=C(Cc1ccc(N2CCCC2=O)cc1)Nc1ccn(Cc2ccc(F)cc2)n1` [Example 204, N-[1-(4-Fluoro-benzyl)-1H-pyrazol-3-yl]-2-[4-(2-oxo-pyrrolidin-1-yl)-phenyl]-acetamide], 0.079 µM. Take `O=C(Cc1ccc2nccnc2c1)Nc1ccn(Cc2ccc(F)c(F)c2)n1` [Example 205, N-[1-(3,4-Difluoro-benzyl)-1H-pyrazol-3-yl]-2-quinoxalin-6-yl-acetamide]: the IC50 was found to be 0.288 µM. With `O=C(Cc1ccc2cccnc2c1)Nc1ccn(Cc2ccc(F)c(F)c2)n1` [Example 206, N-[1-(3,4-Difluoro-benzyl)-1H-pyrazol-3-yl]-2-quinolin-7-yl-acetamide], the IC50 was determined as 0.05 µM. For `O=C(Cc1ccc2c(c1)OCC(=O)N2)Nc1ccn(Cc2ccc(F)c(F)c2)n1` [Example 208, N-[1-(3,4-Difluoro-benzyl)-1H-pyrazol-3-yl]-2-(3-oxo-3,4-dihydro-2H-benzo[1,4]oxazin-7-yl)-acetamide] the value was 0.088 µM.

Turning to `CN1C(=O)COc2cc(CC(=O)Nc3ccn(Cc4ccc(F)c(F)c4)n3)ccc21` [Example 209, N-[1-(3,4-Difluoro-benzyl)-1H-pyrazol-3-yl]-2-(4-methyl-3-oxo-3,4-dihydro-2H-benzo[1,4]oxazin-7-yl)-acetamide], the IC50 turned out to be 0.053 µM. Take `CC(C)c1ccc(CC(=O)Nc2ccn(Cc3ccc(F)c(C#N)n3)n2)cc1` [Example 210, N-[1-(6-Cyano-5-fluoro-pyridin-2-ylmethyl)-1H-pyrazol-3-yl]-2-(4-isopropyl-phenyl)-acetamide]: the IC50 is 0.008 µM. With `CC(C)c1ccc(CC(=O)Nc2ccn(Cc3ccc(F)c(Cl)n3)n2)cc1` [Example 211, N-[1-(6-Chloro-5-fluoro-pyridin-2-ylmethyl)-1H-pyrazol-3-yl]-2-(4-isopropyl-phenyl)-acetamide], the IC50 was 0.0031 µM. Take `Cn1ccc2cc(CC(=O)Nc3ccn(Cc4ccc(F)cc4)n3)cnc21` [Example 213, N-[1-(4-Fluoro-benzyl)-1H-pyrazol-3-yl]-2-(1-methyl-1H-pyrrolo[2,3-b]pyridin-5-yl)-acetamide]: the IC50 turned out to be 0.031 µM. Take `Cn1ccc2cc(CC(=O)Nc3ccn(Cc4ccc(C#N)cc4)n3)cnc21` [Example 214, N-[1-(4-Cyano-benzyl)-1H-pyrazol-3-yl]-2-(1-methyl-1H-pyrrolo[2,3-b]pyridin-5-yl)-acetamide]: the IC50 came to 0.164 µM.

As to `COc1ccc(Cn2ccc(NC(=O)Cc3cnc4c(ccn4C)c3)n2)cc1` [Example 215, N-[1-(4-Methoxy-benzyl)-1H-pyrazol-3-yl]-2-(1-methyl-1H-pyrrolo[2,3-b]pyridin-5-yl)-acetamide], the IC50 amounted to 0.599 µM.

Take `N#Cc1ccc(Cn2ccc(NC(=O)Cc3ccc(C4CC4)nc3)n2)cc1F` [Example 216, N-[1-(4-Cyano-3-fluoro-benzyl)-1H-pyrazol-3-yl]-2-(6-cyclopropyl-pyridin-3-yl)-acetamide]: the IC50 is 0.269 µM.

For `O=C(Cc1ccc2[nH]c(=O)oc2c1)Nc1ccn(Cc2ccc(F)c(F)c2)n1` [Example 218, N-[1-(3,4-Difluoro-benzyl)-1H-pyrazol-3-yl]-2-(2-oxo-2,3-dihydro-benzooxazol-6-yl)-acetamide], the IC50 stood at 0.079 µM. To `Cn1ccc2cc(CC(=O)Nc3ccn(Cc4ccc(F)c(F)c4)n3)ccc21` [Example 220, N-[1-(3,4-Difluoro-benzyl)-1H-pyrazol-3-yl]-2-(1-methyl-1H-indol-5-yl)-acetamide] belongs 0.0031 µM; to `Cn1ccc2ccc(CC(=O)Nc3ccn(Cc4ccc(F)c(F)c4)n3)cc21` [Example 221, N-[1-(3,4-Difluoro-benzyl)-1H-pyrazol-3-yl]-2-(1-methyl-1H-indol-6-yl)-acetamide], 0.005 µM; to `Cn1ncc2ccc(CC(=O)Nc3ccn(Cc4ccc(F)c(F)c4)n3)cc21` [Example 224, N-[1-(3,4-Difluoro-benzyl)-1H-pyrazol-3-yl]-2-(1-methyl-1H-indazol-6-yl)-acetamide], 0.021 µM. As for `O=C(Cc1ccc(C2(O)COC2)cc1)Nc1ccn(Cc2ccc(F)c(F)c2)n1` [Example 226, N-[1-(3,4-Difluoro-benzyl)-1H-pyrazol-3-yl]-2-[4-(3-hydroxy-oxetan-3-yl)-phenyl]-acetamide], the IC50 is 0.025 µM.

In the case of `CC1(C)C(=O)Nc2ccc(CC(=O)Nc3ccn(Cc4ccc(F)c(F)c4)n3)cc21` [Example 228, N-[1-(3,4-Difluoro-benzyl)-1H-pyrazol-3-yl]-2-(3,3-dimethyl-2-oxo-2,3-dihydro-1H-indol-5-yl)-acetamide], the IC50 was 0.044 µM. Turning to `Cn1cnc2cc(CC(=O)Nc3ccn(Cc4ccc(F)c(F)c4)n3)ccc21` [Example 230, N-[1-(3,4-Difluoro-benzyl)-1H-pyrazol-3-yl]-2-(1-methyl-1H-benzoimidazol-5-yl)-acetamide], the IC50 was 0.255 µM. As for `COC1(c2ccc(CC(=O)Nc3ccn(Cc4ccc(F)c(F)c4)n3)cc2)COC1` [Example 231, N-[1-(3,4-Difluoro-benzyl)-1H-pyrazol-3-yl]-2-[4-(3-methoxy-oxetan-3-yl)-phenyl]-acetamide], the IC50 was found to be 0.021 µM. To `Cc1nc(-c2ccc(CC(=O)Nc3ccn(Cc4ccc(F)c(F)c4)n3)cc2)no1` [Example 235, N-[1-(3,4-Difluoro-benzyl)-1H-pyrazol-3-yl]-2-[4-(5-methyl-[1,2,4]oxadiazol-3-yl)-phenyl]-acetamide] belongs 0.042 µM. To `O=C(Cc1ccc(-c2ncon2)cc1)Nc1ccn(Cc2ccc(F)c(F)c2)n1` [Example 236, N-[1-(3,4-Difluoro-benzyl)-1H-pyrazol-3-yl]-2-(4-[1,2,4]oxadiazol-3-yl-phenyl)-acetamide] belongs 0.018 µM; to `CN(C)c1ccc(CC(=O)Nc2ccn(Cc3ccc(Br)cc3)n2)cc1` [Example 239, N-[1-(4-Bromo-benzyl)-1H-pyrazol-3-yl]-2-(4-dimethylamino-phenyl)-acetamide], 0.0024 µM. For the compound `O=C(Cc1ccc(OCC2COC2)cc1)Nc1ccn(Cc2ccc(F)c(F)c2)n1` [Example 242, N-[1-(3,4-Difluoro-benzyl)-1H-pyrazol-3-yl]-2-[4-(oxetan-3-ylmethoxy)-phenyl]-acetamide], the IC50 worked out at 0.039 µM. Take `CC1(COc2ccc(CC(=O)Nc3ccn(Cc4ccc(F)c(F)c4)n3)cc2)CC(F)(F)C1` [Example 243, N-[1-(3,4-Difluoro-benzyl)-1H-pyrazol-3-yl]-2-[4-(3,3-difluoro-1-methyl-cyclobutylmethoxy)-phenyl]-acetamide]: the IC50 is 0.037 µM. `O=C(Cc1ccc(OCC2CC(F)(F)C2)cc1)Nc1ccn(Cc2ccc(F)c(F)c2)n1` [Example 244, N-[1-(3,4-Difluoro-benzyl)-1H-pyrazol-3-yl]-2-[4-(3,3-difluoro-cyclobutylmethoxy)-phenyl]-acetamide]: the IC50 is 0.033 µM. As to `O=C(Cc1ccc(OCC2(F)COC2)cc1)Nc1ccn(Cc2ccc(F)c(F)c2)n1` [Example 245, N-[1-(3,4-Difluoro-benzyl)-1H-pyrazol-3-yl]-2-[4-(3-fluoro-oxetan-3-ylmethoxy)-phenyl]-acetamide], the IC50 was determined as 0.03 µM. As to `N#Cc1ccc(Cn2ccc(NC(=O)Cc3ccc(C4(F)COC4)cc3)n2)nc1` [Example 246, N-[1-(5-Cyano-pyridin-2-ylmethyl)-1H-pyrazol-3-yl]-2-[4-(3-fluoro-oxetan-3-yl)-phenyl]-acetamide], the IC50 was determined as 0.705 µM.

Consider `N#Cc1ccc(Cn2ccc(NC(=O)Cc3ccc(OC4COC4)cc3)n2)nc1` [Example 247, N-[1-(5-Cyano-pyridin-2-ylmethyl)-1H-pyrazol-3-yl]-2-[4-(oxetan-3-yloxy)-phenyl]-acetamide], for which the IC50 is 2.59 µM. As to `N#Cc1ccc(Cn2ccc(NC(=O)Cc3ccc(OCC4(F)COC4)cc3)n2)nc1` [Example 248, N-[1-(5-Cyano-pyridin-2-ylmethyl)-1H-pyrazol-3-yl]-2-[4-(3-fluoro-oxetan-3-ylmethoxy)-phenyl]-acetamide], the concentration for half-maximal inhibition (IC50) was 1.81 µM. In the case of `Cn1ncc2cc(CC(=O)Nc3ccn(Cc4ccc(C#N)cn4)n3)ccc21` [Example 249, N-[1-(5-Cyano-pyridin-2-ylmethyl)-1H-pyrazol-3-yl]-2-(1-methyl-1H-indazol-5-yl)-acetamide], the IC50 came to 0.295 µM.

These data come from patent US9932314B2, “Pyrazole compounds and their use as T-type calcium channel blockers” (IDORSIA PHARMACEUTICALS LTD, priority 2015, dated 2018).
